Structures can show the parent of a compound that is named as a salt.
Molecular target: T1, human neurokinin-1-receptor (NK1R) (Homo sapiens, UniProt P25103)
T1 construct: expressed in transfected cells
Assay: Substance P antagonism assay: 125I-substance P binding to human NK1R expressed in COS or CHO cells
Conditions: 125I-substance P displacement, 4° C. or room temperature, 1 hour
Experimental: To express the cloned human neurokinin-1-receptor (NK1R) transiently in COS, the cDNA for the human NK1R was cloned into the expression vector pCDM9 which was derived from pCDM8 (INVITROGEN) by inserting the ampicillin resistance gene (nucleotide 1973 to 2964 from BLUESCRIPT SK+ (trademark, STRATAGENE, La Jolla, Calif., USA)) into the Sac II site. Transfection of 20 ug of the plasmid DNA into 10 million COS cells was achieved by electroporation in 800 μof transfection buffer (135 mM NaCl, 1.2 mM CaCl2, 1.2 mM MgCl2 2.4 mM K2 HPO4, 0.6 mM KH2 PO4, 10 mM glucose, 10 mM N-2-hydroxyethyl-piperazine-N'-2-ethane sulphonic acid (HEPES) pH 7.4) at 260 V and 950 μusing the IBI GENEZAPPER (trademark IBI, New Haven, Conn., USA). The cells were incubated in 10% fetal calf serum, 2 mM glutamine, 100 U/ml penicillin-streptomycin, and 90% DMEM media (GIBCO, Grand Island, N.Y., USA) in 5% CO2 at 37° C. for three days before the binding assay.
To establish a stable cell line expressing cloned human NK1R, the cDNA was subcloned into the vector pRcCMV (INVITROGEN). Transfection of 20 ug of the plasmid DNA into CHO cells was achieved by electroporation in 800 μl of transfection buffer supplemented with 0.625 mg/ml Herring sperm DNA at 300 V and 950 μF using the IBI GENEZAPPER (IBI). The transfected cells were incubated in CHO media [10% fetal calf serum, 100 U/ml penicillin-streptomycin, 2 mM glutamine, 1/500 hypoxanthine-thymidine (ATCC), 90% IMDM media (JRH BIOSCIENCES, Lenexa, Kans., USA), 0.7 mg/ml G418 (GIBCO)] in 5% CO2 at 37° C. until colonies were visible. Each colony was separated and propagated. The cell clone with the highest number of human NK1R was selected for subsequent applications such as drug screening.
The binding assay of human NK1R expressed in either COS or CHO cells is based on the use of ^125 I-substance P (^125 I-SP, from DU PONT, Boston, Mass.) as a radioactively labeled ligand which competes with unlabeled substance P or any other ligand for binding to the human NK1R. Monolayer cell cultures of COS or CHO were dissociated by the non-enzymatic solution (SPECIALTY MEDIA, Lavellette, N.J.) and resuspended in appropriate volume of the binding buffer (50 mM Tris pH 7.5, 5 mM MnCl2, 150 mM NaCl, 0.04 mg/ml bacitracin, 0.004 mg/ml leupeptin, 0.2 mg/ml BSA, 0.01 mM phosphoramidon) such that 200 μl of the cell suspension would give rise to about 10,000 cpm of specific ^125 I-SP binding (approximately 50,000 to 200,000 cells). In the binding assay, 200 ul of cells were added to a tube containing 20 ul of 1.5 to 2.5 nM of ^125 I-SP and 20 μl of unlabeled substance P or any other test compound. The tubes were incubated at 4° C. or at room temperature for 1 hour with gentle shaking. The bound radioactivity was separated from unbound radioactivity by GF/C filter (BRANDEL, Gaithersburg, Md.) which was prewetted with 0.1% polyethylenimine. The filter was washed with 3 ml of wash buffer (50 mM Tris pH 7.5, 5 mM MnCl2, 150 mM NaCl) three times and its radioactivity was determined by gamma counter.

T1 sequence (P25103 whole entry): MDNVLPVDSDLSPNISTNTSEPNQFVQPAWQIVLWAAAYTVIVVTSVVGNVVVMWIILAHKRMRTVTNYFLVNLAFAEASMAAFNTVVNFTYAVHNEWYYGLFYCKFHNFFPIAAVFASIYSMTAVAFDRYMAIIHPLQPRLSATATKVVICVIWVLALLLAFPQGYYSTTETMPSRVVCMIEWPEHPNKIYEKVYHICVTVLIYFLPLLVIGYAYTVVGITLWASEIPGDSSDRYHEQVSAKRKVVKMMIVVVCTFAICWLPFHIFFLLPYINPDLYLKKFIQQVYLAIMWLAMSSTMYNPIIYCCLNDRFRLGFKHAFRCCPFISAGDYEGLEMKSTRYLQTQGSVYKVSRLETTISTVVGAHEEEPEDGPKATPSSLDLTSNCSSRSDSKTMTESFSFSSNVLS

First: Cc1cc(C)cc(COC2C3CCN(CC3)C2C(Cc2ccccc2)c2ccccc2)c1 (single isomer, unassigned) [1: ISOMER A]
Second: FC(F)(F)c1cc(COC2C3CCN(CC3)C2C(Cc2ccccc2)c2ccccc2)cc(C(F)(F)F)c1 (single isomer, unassigned) [2: ISOMER A]
The IC50 of the first is 1.9-fold lower: 2.4 nM for the first, 4.5 nM for the second. The first is the more potent here.

Compared with `Cc1cc(C)cc(COC2C3CCN(CC3)C2C(Cc2ccccc2)c2ccccc2)c1` (single isomer, unassigned) [1: ISOMER B], `FC(F)(F)c1cc(COC2C3CCN(CC3)C2C(Cc2ccccc2)c2ccccc2)cc(C(F)(F)F)c1` (single isomer, unassigned) [2: ISOMER B] is 3.5-fold higher in IC50: 1.8 nM for the first, 6.3 nM for the second. The first is the more potent here.

`Cc1cc(C)cc(COC2C3CCN(CC3)C2C(Cc2ccccc2)c2ccccc2)c1` (single isomer, unassigned) [1: ISOMER C] and `FC(F)(F)c1cc(COC2C3CCN(CC3)C2C(Cc2ccccc2)c2ccccc2)cc(C(F)(F)F)c1` (single isomer, unassigned) [2: ISOMER C] cannot be ordered by IC50: > 100 nM for the first, > 100 nM for the second.

Going from `COc1ccc(C(Cc2ccccc2)C2C(OCc3cc(C(F)(F)F)cc(C(F)(F)F)c3)C3CCN2CC3)cc1` (single isomer, unassigned) [3: ISOMER A] to `COc1cccc(C(Cc2ccccc2)C2C(OCc3cc(C(F)(F)F)cc(C(F)(F)F)c3)C3CCN2CC3)c1` (single isomer, unassigned) [4: ISOMER A], the IC50 rises from 3 nM to 10 nM (3.3-fold). The first is the more potent here.

Going from `COc1cccc(C(Cc2ccccc2)C2C(OCc3cc(C(F)(F)F)cc(C(F)(F)F)c3)C3CCN2CC3)c1` (single isomer, unassigned) [4: ISOMER B] to `FC(F)(F)c1cc(COC2C3CCN(CC3)C2C(c2ccccc2)C2CCCCC2)cc(C(F)(F)F)c1` (stereo not drawn) [Example 5, 3-(3,5-Bis(trifluoromethyl)phenyl)methyloxy-2-(α-cyclohexylbenzyl)-1-azabicyclo[2.2.2]octane oxalate hemihydrate], the IC50 rises from 1.8 nM to 3 nM (1.7-fold).

Reference: patent US5288730A, “Azabicyclic compounds, pharmaceutical compositions containing them and their use in therapy” (Merck Sharp & Dohme Limited, priority 1991, dated 1994)
